Experimental data reported in patent US9655879B2, “Heteroarylcarboxylic acid ester derivative” (EA Pharma Co., Ltd., priority 2012, dated 2017).

Test system: Zucker Fatty rats
Assay: Evaluation of hypoglycemic action
Assay type: in vivo, rat
Details: gavage 3 mg/kg, HCl salt form, 2 or 4 hours after dosing
Description: Zucker Fatty rats (male, 11-19 week-old, Charles River Japan, Inc.) known to spontaneously develop hyperglycemia were randomly assigned to the groups (6 per group). The animals were individually housed in a polycarbonate cage and allowed to drink water freely from a watering bottle. The animals in the compound groups were gavaged with compound No. 10, 87, 19, or 69 at the dose of 3 mg/kg. These compounds were used as HCl salt form thereof, converted by the method according to Example 3, step 6 from TFA salt form thereof upon the necessity. The animals in the control group were only treated with the vehicle (0.5% methylcellulose). Animals were allowed free access to the feed (CRF-1, Oriental Yeast Co., Ltd.) during the experiment. An aspirate of the blood (6 μL) was collected from the tail vein on the time point of immediately before dosing (time 0) as well as 2, 4, and 8 hours after dosing. The blood glucose levels were determined with ACCU-CHEK Aviva (Roche Diagnostics K.K.).

Structure (SMILES)	blood glucose levels compared with vehicle group
CCCN(CC(=O)O)C(=O)C(C)(C)Cc1ccc(C(=O)Oc2ccc(C(=N)N)cc2F)s1.Cl [Compound 10, N-{3-[5-(4-amidino-2-fluorophenoxycarbonyl)thiophen-2-yl]-2,2-dimethylpropionyl}-N-propylglycine hydrochloride]	significantly decreased
CCC(CC)(Cc1ccc(C(=O)Oc2ccc(C(=N)N)cc2F)s1)C(=O)N[C@@H](CC(=O)O)C(=O)O.Cl [Compound 19]	significantly decreased
CC(C)(Cc1ccc(C(=O)Oc2ccc(C(=N)N)cc2F)s1)C(=O)N[C@@H](C(=O)O)c1ccc(O)cc1 [Compound 69]	significantly decreased
